Experimental data from paper PMC8944975, “Secretin Receptor as a Target in Gastrointestinal Cancer: Expression Analysis and Ligand Development” (Biomedicines, 2022).

Target: human SCTR (Homo sapiens, UniProt P47872)
Assay: agonist-induced β-arr2-GFP translocation
Assay type: cell-based
Set-up: expressed in transfected cells; host or cells: U2OS (human osteosarcoma), stably co-transfected with β-arrestin2-GFP
Conditions: Supplementary Tables S1 and S2, decimal comma, '-' not detectable (Figure 4); for β-arrestin2-GFP agonism efficacy: % of wild-type secretin; for EC50: U2OS-SCTR/β-arr2-GFP cells, 20 min at 37 °C, mean of at least three independent experiments in duplicates, read-out: β-arrestin2-GFP agonism potency
From the text: U2OS-SCTR/β-arr2-GFP: human osteosarcoma cell line U2OS (purchased from ATCC/LGC Standards, Wesel, Germany) were stably transfected with plasmids encoding SCTR (Homo sapiens) and the fusion protein β-arrestin2-green fluorescent protein (GFP) (Rattus norvegicus-Aequorea victoria) (β-arr2-GFP).
To evaluate reactivity of human SCTR exposed to different ligand variants, intracellular translocation of a fusion protein of β-arrestin2 and green fluorescent protein was utilized. For evaluation of activation, receptor-mediated recruitment of cytoplasmic β-arr2-GFP was monitored through its translocation into condensed intracellular vesicles. The extent of translocation events was quantified by determining the increasing granularization of the intracellular fluorescence utilizing an automated high-throughput microscope in combination with computational algorithms to estimate potency (EC50) and efficacy, thus characterizing ligand-SCTR interaction. U2OS-SCTR/β-arr2-GFP cells were seeded in 96-well cell culture plates to 60–80% confluence. On the following day, preceding stimulation, cells were incubated for one hour in serum-free medium. Ligand variants were applied as serial dilutions in assay buffer C1. After preincubation, supernatant was discarded by tapping plates overhead repeatedly. For stimulation, 50 µL of ligand dilution was applied per well in duplicates and incubated for 20 min at 37 °C. Successively, cells were fixed by applying 4% buffered formaldehyde (Herbeta Arzneimittel, Berlin, Germany) for 10 min at room temperature and consecutively permeabilized for 10 min at room temperature with 0.1% TritonX-100 in PBS, containing DAPI (4′,6-Diamidin-2-phenylindol, SigmaAldrich, Deisenhofen, Germany, 1 µg/mL) to counterstain nuclei. Microscopic images were recorded by an IN Cell Analyzer 1000 (GE Healthcare, Reading, UK) with 20× magnification at 5 frames per well in a 96-well format. Image processing was performed with IN Cell Investigator software (GE Healthcare, Reading, UK), applying the provided granularity algorithm. The output of the analysis was indicated as vesicle area/cell and was utilized for calculation of concentration–response curves. Parameters derived from curve fitting included the concentration of half-maximal activity (EC50), and intrinsic activity. Intrinsic activity was normalized defining reaction to non-modified wild type secretin as the 100% curve maximum value.

human SCTR, sequence (P47872 23-440): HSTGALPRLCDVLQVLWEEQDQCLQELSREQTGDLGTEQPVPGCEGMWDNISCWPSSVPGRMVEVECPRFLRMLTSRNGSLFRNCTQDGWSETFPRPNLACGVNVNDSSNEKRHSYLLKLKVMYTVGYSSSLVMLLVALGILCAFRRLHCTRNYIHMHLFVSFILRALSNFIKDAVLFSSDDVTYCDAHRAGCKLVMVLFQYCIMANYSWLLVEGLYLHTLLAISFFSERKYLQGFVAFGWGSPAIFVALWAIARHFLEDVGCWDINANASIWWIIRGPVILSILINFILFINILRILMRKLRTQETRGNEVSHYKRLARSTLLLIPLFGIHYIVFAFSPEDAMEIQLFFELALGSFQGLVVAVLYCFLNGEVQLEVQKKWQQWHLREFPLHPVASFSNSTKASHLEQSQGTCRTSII

Row | β-arrestin2-GFP agonism efficacy | EC50 | SMILES
1 | 101,90 % Sec |  | CC(C)C[C@H](NC(=O)[C@H](CCCNC(=N)N)NC(=O)[C@H](C)NC(=O)CNC(=O)[C@H](CCC(=O)O)NC(=O)[C@H](CCCNC(=N)N)NC(=O)[C@H](CC(C)C)NC(=O)[C@H](CCCNC(=N)N)NC(=O)[C@H](CO)NC(=O)[C@H](CC(C)C)NC(=O)[C@H](CCC(=O)O)NC(=O)[C@H](CO)NC(=O)[C@@H](NC(=O)[C@H](Cc1ccccc1)NC(=O)[C@@H](NC(=O)CNC(=O)[C@H](CC(=O)O)NC(=O)[C@H](CO)NC(=O)[C@@H](N)Cc1c[nH]cn1)[C@@H](C)O)[C@@H](C)O)C(=O)N[C@@H](CCC(N)=O)C(=O)N[C@@H](CCCNC(=N)N)C(=O)N[C@@H](CC(C)C)C(=O)N[C@@H](CC(C)C)C(=O)N[C@@H](CCC(N)=O)C(=O)NCC(=O)N[C@H](CC(C)C)C(=O)N[C@H](C(=O)O)C(C)C [Peptide 95]
2 | 100,40 % Sec |  | CC(C)C[C@H](NC(=O)CNC(=O)[C@H](CCC(N)=O)NC(=O)[C@H](CC(C)C)NC(=O)[C@H](CC(C)C)NC(=O)[C@H](CCCNC(=N)N)NC(=O)[C@H](CCC(N)=O)NC(=O)[C@H](CC(C)C)NC(=O)[C@H](CCCNC(=N)N)NC(=O)[C@H](C)NC(=O)CNC(=O)[C@H](CCC(=O)O)NC(=O)[C@H](CCCNC(=N)N)NC(=O)[C@H](CC(C)C)NC(=O)[C@H](CCCNC(=N)N)NC(=O)[C@H](CO)NC(=O)[C@H](CC(C)C)NC(=O)[C@@H](CCC(=O)O)NC(=O)[C@H](CO)NC(=O)[C@@H](NC(=O)[C@H](Cc1ccccc1)NC(=O)[C@@H](NC(=O)CNC(=O)[C@H](CC(=O)O)NC(=O)[C@H](CO)NC(=O)[C@@H](N)Cc1c[nH]cn1)[C@@H](C)O)[C@@H](C)O)C(=O)N[C@H](C(=O)O)C(C)C [Peptide 93]
3 | 106,23 % Sec | 3.37 nM | CC(C)C[C@H](NC(=O)CNC(=O)[C@H](CCC(N)=O)NC(=O)[C@H](CC(C)C)NC(=O)[C@H](CC(C)C)NC(=O)[C@H](CCCNC(=N)N)NC(=O)[C@H](CCC(N)=O)NC(=O)[C@H](CC(C)C)NC(=O)[C@H](CCCNC(=N)N)NC(=O)[C@H](C)NC(=O)CNC(=O)[C@H](CCC(=O)O)NC(=O)[C@H](CCCNC(=N)N)NC(=O)[C@H](CC(C)C)NC(=O)[C@H](CCCNC(=N)N)NC(=O)[C@H](CO)NC(=O)[C@H](CC(C)C)NC(=O)[C@H](CCC(=O)O)NC(=O)[C@H](CO)NC(=O)[C@@H](NC(=O)[C@H](Cc1ccccc1)NC(=O)[C@@H](NC(=O)CNC(=O)[C@H](CC(=O)O)NC(=O)[C@@H]1CCCN1C(=O)[C@@H](N)Cc1c[nH]cn1)[C@@H](C)O)[C@@H](C)O)C(=O)N[C@H](C(=O)O)C(C)C [Peptide 74]
4 | 96,57 % Sec | 39.1 nM | CC(C)C[C@H](NC(=O)CNC(=O)[C@H](CCC(N)=O)NC(=O)[C@H](CC(C)C)NC(=O)[C@H](CC(C)C)NC(=O)[C@H](CCCNC(=N)N)NC(=O)[C@H](CCC(N)=O)NC(=O)[C@H](CC(C)C)NC(=O)[C@H](CCCNC(=N)N)NC(=O)[C@H](C)NC(=O)CNC(=O)[C@H](CCC(=O)O)NC(=O)[C@H](CCCNC(=N)N)NC(=O)[C@H](CC(C)C)NC(=O)[C@H](CCCNC(=N)N)NC(=O)[C@H](CO)NC(=O)[C@H](CC(C)C)NC(=O)[C@H](CCC(=O)O)NC(=O)[C@H](CO)NC(=O)[C@@H](NC(=O)[C@H](Cc1ccccc1)NC(=O)[C@@H](NC(=O)CNC(=O)[C@H](CC(=O)O)NC(=O)[C@H](CO)NC(=O)[C@@H]1CCCN1)[C@@H](C)O)[C@@H](C)O)C(=O)N[C@H](C(=O)O)C(C)C [Peptide 73]
